Values quoted from earlier work as cited in paper PMC6269737, “Effect of Honokiol on Cytochrome P450 and UDP-Glucuronosyltransferase Enzyme Activities in Human Liver Microsomes” (Molecules, 2013).

How the values were obtained:
CYP2C8 = molecular target: T1, CYP2C8 (Homo sapiens, UniProt P10632); conditions: cited from earlier work
T1 sequence (P10632 1-490): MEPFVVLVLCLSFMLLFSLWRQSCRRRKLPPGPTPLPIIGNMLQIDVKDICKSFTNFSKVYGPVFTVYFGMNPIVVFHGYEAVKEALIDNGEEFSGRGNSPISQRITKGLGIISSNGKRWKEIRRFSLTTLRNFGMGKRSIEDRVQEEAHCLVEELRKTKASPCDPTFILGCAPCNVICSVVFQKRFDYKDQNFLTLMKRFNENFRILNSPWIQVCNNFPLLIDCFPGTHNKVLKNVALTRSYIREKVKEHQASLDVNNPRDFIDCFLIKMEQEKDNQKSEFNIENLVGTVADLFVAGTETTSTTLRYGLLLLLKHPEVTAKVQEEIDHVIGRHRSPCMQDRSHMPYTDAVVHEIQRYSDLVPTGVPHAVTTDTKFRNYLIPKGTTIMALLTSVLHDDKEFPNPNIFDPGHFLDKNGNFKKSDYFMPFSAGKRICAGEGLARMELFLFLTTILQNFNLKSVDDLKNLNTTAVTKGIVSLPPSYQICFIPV

CYP2B6 = molecular target: T2, CYP2B6 (Homo sapiens, UniProt P20813); parameters: method as in PMID 23446989; conditions: inhibitory effect towards CYP2B6; cited from earlier work
T2 sequence (P20813 1-491): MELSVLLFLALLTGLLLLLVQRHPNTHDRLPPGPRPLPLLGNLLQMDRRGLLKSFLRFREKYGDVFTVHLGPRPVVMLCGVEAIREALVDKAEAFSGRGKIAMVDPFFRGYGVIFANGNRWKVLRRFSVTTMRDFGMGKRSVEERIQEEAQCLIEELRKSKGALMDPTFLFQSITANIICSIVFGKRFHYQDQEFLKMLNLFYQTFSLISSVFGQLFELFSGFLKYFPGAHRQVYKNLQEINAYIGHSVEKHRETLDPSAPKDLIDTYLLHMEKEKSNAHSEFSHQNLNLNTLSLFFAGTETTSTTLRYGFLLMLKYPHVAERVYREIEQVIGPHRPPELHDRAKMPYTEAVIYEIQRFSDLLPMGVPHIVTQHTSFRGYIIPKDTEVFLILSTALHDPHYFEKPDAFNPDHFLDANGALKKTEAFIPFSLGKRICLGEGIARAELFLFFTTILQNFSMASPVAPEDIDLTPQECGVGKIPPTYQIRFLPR

CYP2C19 = CYP2C19 (Homo sapiens, UniProt P33261); parameters: method as in PMID 23446989; conditions: inhibitory effect towards CYP2C19; cited from earlier work
CYP1A2 = molecular target: T3, CYP1A2 (Homo sapiens, UniProt P05177); parameters: method as in PMID 23446989; conditions: inhibitory effect towards CYP1A2; cited from earlier work
T3 sequence (P05177 1-516): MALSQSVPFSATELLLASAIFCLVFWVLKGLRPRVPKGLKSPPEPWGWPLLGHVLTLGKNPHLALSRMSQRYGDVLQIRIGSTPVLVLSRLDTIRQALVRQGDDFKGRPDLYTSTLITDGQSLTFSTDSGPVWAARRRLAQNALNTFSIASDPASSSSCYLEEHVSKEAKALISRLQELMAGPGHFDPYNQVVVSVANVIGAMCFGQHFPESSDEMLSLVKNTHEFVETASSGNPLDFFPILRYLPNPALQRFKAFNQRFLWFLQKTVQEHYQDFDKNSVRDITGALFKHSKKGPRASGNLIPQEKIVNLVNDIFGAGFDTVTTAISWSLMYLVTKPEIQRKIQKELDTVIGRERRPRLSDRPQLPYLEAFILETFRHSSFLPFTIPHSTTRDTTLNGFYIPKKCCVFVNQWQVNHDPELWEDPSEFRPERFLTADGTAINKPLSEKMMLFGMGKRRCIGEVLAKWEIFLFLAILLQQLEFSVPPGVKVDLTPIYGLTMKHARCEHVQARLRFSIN

CYP2C9 = CYP2C9 (Homo sapiens, UniProt P11712); conditions: inhibitory effect towards CYP2C9; cited from earlier work
UGT1A9 = molecular target: T4, UGT1A9 (Homo sapiens, UniProt O60656); parameters: method as in PMID 21245288; conditions: selective UGT1A9 inhibitor; cited from earlier work
T4 sequence (O60656 26-530): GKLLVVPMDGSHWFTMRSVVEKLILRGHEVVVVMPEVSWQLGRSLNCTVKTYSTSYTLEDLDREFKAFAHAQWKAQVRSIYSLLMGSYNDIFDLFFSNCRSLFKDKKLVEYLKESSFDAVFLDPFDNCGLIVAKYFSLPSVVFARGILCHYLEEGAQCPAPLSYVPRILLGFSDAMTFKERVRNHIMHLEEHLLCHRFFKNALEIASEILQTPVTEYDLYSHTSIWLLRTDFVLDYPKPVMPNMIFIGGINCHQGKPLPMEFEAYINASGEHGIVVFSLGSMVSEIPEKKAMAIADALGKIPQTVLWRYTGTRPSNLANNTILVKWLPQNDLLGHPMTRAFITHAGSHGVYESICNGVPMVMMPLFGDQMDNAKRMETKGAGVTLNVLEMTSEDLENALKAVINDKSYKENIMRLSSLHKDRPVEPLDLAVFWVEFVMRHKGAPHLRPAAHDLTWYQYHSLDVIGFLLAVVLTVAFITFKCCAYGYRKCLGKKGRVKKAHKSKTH

Sequence of CYP2C19 (P33261 whole entry): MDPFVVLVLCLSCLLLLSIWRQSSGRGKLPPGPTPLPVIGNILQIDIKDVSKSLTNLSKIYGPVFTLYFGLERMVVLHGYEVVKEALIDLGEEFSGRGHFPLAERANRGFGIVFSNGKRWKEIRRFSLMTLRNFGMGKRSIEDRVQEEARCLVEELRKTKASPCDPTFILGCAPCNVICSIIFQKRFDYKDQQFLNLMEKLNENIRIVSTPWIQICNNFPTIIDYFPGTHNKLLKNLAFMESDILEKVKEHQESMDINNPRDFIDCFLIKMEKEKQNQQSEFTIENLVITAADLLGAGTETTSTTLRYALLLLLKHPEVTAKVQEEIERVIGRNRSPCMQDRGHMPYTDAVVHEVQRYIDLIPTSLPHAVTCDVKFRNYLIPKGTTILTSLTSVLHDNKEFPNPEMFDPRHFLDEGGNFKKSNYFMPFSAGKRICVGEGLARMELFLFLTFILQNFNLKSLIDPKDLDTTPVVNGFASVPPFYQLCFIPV
Sequence of CYP2C9 (P11712 whole entry): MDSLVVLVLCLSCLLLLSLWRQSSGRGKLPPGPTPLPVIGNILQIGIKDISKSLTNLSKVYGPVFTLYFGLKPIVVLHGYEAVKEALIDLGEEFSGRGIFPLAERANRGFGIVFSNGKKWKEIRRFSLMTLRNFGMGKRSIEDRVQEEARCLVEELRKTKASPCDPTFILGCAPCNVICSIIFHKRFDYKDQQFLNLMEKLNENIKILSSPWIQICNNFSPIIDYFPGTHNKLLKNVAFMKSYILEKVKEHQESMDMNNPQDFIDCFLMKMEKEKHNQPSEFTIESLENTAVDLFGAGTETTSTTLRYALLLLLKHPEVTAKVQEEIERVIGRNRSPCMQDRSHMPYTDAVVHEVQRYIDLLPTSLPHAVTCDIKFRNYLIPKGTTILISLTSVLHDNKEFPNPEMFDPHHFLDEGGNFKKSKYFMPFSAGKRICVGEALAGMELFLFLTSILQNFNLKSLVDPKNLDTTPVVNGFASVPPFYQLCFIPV

## Cc1ccc(C)c(OCCCC(C)(C)C(=O)O[C@@H]2O[C@H](C(=O)O)[C@@H](O)[C@H](O)[C@H]2O)c1 [gemfibrozil glucuronide]
CYP2C8; selective CYP2C8 inhibitor
  Ki: 20 to 52 µM

## C=CCc1ccc(Oc2cc(CC=C)cc(O)c2O)cc1 [obovatol]
CYP2B6
  IC50: 13.9 µM
CYP2C19
  IC50: 0.8 µM
CYP2C8; inhibitory effect towards CYP2C8
  IC50: 11.1 µM
CYP1A2
  IC50: 4.4 µM
CYP2C9
  IC50: 3.3 µM

## O=C(O)c1cccnc1Nc1cccc(C(F)(F)F)c1 [niflumic acid]
UGT1A9
  Ki: 0.1 to 0.4 µM
